In patent US20080089956A1, “NITRIC OXIDE IN TREATMENT OF INFLAMMATION” (AGA AB, priority 2003, published 2008):
Entries after “also recorded” stand apart in the source; their conditions may differ.

Tests used:
Assay type in all cases: in vivo, piglets of Swedish country breed
[1] = test system: endotoxin pig model (LPS-induced acute lung injury and septic shock); assay: Haemodynamics and arterial oxygenation in endotoxin (LPS) pig model
Description: (§1) The pigs were divided into 5 groups: • 1. Normal control group • 2. Endotoxin (lipopolysaccharide, LPS) group • 3. LPS+INO group • 4. LPS+steoid group • 5. LPS +INO +steroid group • The different protocols are shown schematically in FIG. 1 and are described below. 1. Healthy Control Group (n=8)
(§2) After baseline measurements, acute lung injury and septic shock was induced by intravenous infusion of LPS 25 μg/kg/h in saline for 2.5 h, followed by 10 μg/kg/h for the remainder of the study. The pigs were followed by hemodynamics and blood gas measurements and were killed at the end of the experiment and tissue samples were taken, as described above.
(§3) LPS infusion was started after baseline measurements and continued for 6 hours. Two and half hours after commencement of the endotoxin infusion, inhalation of NO 30 ppm was started and maintained for 3.5 hours. Measurements were taken every hour to check for any protective effect of INO therapy on the lung and extra-pulmonary organs.
(§4) This group received endotoxin over 6 hours, as described above, and 2.5 hours after the start of endotoxin administration steroids were given i.v. and INO, 30 ppm, was commenced and continued for the remaining 3.5 hours study period.
(§5) NO, 1000 ppm in N2, was added to a mixture of O2/N2 and administered through the low-flow inlet of the ventilator. The inspired gas was passed through a canister containing soda lime to absorb any NO2. […] The concentrations of inspired NO and NO2 were measured continuously, by chemiluminescence (9841 NOx, Lear Siegler Measurement Controls Corporation, Englewood, Colo., USA), in the inspiratory limb of the ventilator tubing.

[2] = test system: endotoxin pig model (LPS-induced acute lung injury and septic shock); assay: Histological changes of lung, liver and kidney tissues in endotoxin pig model; design: Congestion / Inflammatory cell infiltrate / Congestion and hemorrhage / Edema/ Hemorrage: key to the marks not given beside the values
Description: as §1
(§6) Anesthesia, surgery preparation and catheterizations were followed by 30 min of rest. Baseline measurements were then made. The pigs were followed for another 6 hours to establish control data over the whole study period. The pigs were killed after the last measurement with an intra-venous injection of KCl; and tissue samples were taken from the lung, liver and kidney for morphological and biochemical studies.
as §2, §3, §4
as §5, with “tubing. FIO2 was checked after addition of NO and kept stable at the pre-INO level.” for “tubing.”

glucocorticoid receptor = assay: GR expression, immunohistochemical staining of tissue from endotoxin-exposed piglets; details: compared with LPS group
Description: as §6
(§7) Anesthesia, surgery and catheterizations were similar to the controls. After baseline measurements, acute lung injury and septic shock was induced by intravenous infusion of LPS 25 μg/kg/h in saline for 2.5 h, followed by 10 μg/kg/h for the remainder of the study. […]
(§8) The antibodies were detected with the peroxidase-anti-peroxidase method using 3-amino-9-ethyl-carbazole (AEC, SIGMA Catalogue No. A-6926 Germany) as chromogen. […]
(§9) An image-analysis system consisting of a 12-bit cooled charge-coupled device camera (Sensys KAF 1400, Photometrics, Tucson, AZ) mounted on a fully automated Leica (Wetzlar, Germany) DM RXA microscope was used to digitize grey-scale images to a dual-Pentium 200 MHz host computer. […] The optimal central wavelength was determined by measurement of the substrate in a Leica MPV SP microscope photometer system (courtesy of Leica).

NF-κB = assay: Expression of NF-κB, immunohistochemical staining of tissue from endotoxin-exposed piglets
Description: as §6, §7, §8, §9

[3] = piglets during 6 h endotoxin infusion, treatment from 2.5 h
[4] = Kidney, piglets, LPS infusion 6 h, treatment from 2.5 h (INO 30 ppm; hydrocortisone 3.5 mg/kg i.v.)
[5] = Liver, piglets, LPS infusion 6 h, treatment from 2.5 h (INO 30 ppm; hydrocortisone 3.5 mg/kg i.v.)

Q: Which results are given for nitric oxide [LPS + INO]?
A: arterial oxygenation (PaO2), effect in words [1, 3]: improved oxygenation; also recorded: prevented part of the fall in PaO2; mean pulmonary artery pressure (MPAP), effect in words [1, 3]: lowered MPAP but not back to normal; also recorded: attenuated the increase in MPAP; MPAP higher than in healthy controls ([1]; piglets during endotoxin infusion with INO 30 ppm, p<0.01 vs healthy controls): 75-80%; histology changes of kidney tissue, in words ([2]; Kidney, endotoxin-exposed piglets, compared with LPS group / healthy): even less marked than in the LPS+Steroid group; Edema/ Hemorrage [2, 4]: +++; Inflammatory cell infiltrate [2, 4]: +++; histology changes of liver tissue, in words ([2]; Liver, endotoxin-exposed piglets, compared with LPS group / healthy): much less than in the LPS group; Congestion and hemorrhage [2, 5]: ++; Destruction of the lobular structure [2, 5]: +; Inflammatory cell infiltrate [2, 5]: +++; histology changes of lung tissue, in words ([2]; Lung, endotoxin-exposed piglets, compared with LPS group / healthy): even less of these changes; Inflammatory cell infiltrate ([2]; Lung, piglets, LPS infusion 6 h, treatment from 2.5 h (INO 30 ppm for 3.5 h; hydrocortisone 3.5 mg/kg i.v.)): +++; Congestion ([2]; Lung, piglets, LPS infusion 6 h, treatment from 2.5 h (INO 30 ppm; hydrocortisone 3.5 mg/kg i.v.)): +++; inflammatory response, in words ([2]; endotoxin pig model, lung, liver and kidney (discussion)): attenuated the inflammatory response but only to a limited degree; expression of glucocorticoid receptor in lung tissue, in words (glucocorticoid receptor): significantly raised; NF-kB expression in lung tissue, in words (NF-κB): at a low level
